What was measured:
Format in all cases: in vivo
[1] = test system: ragweed (common ragweed, Ambrosia elatior); experiment: Test A preemergence, visual plant response rating; settings: for Ragweed plant response rating: preemergence, 0 to 100 scale, 0 no effect, 100 complete control; for Ragweed plant response rating (0 to 100 scale): approx. 10 days
How it was run: (§1)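 Ratings 0–100 (100 = complete control), visual, vs untreated controls at ~10 days. Application pre- or postemergence; solvent mixture with surfactant; loam/sand medium.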

[2] = test system: pigweed (Amaranthus retroflexus); experiment: Test A preemergence, visual plant response rating; settings: for Pigweed plant response rating: preemergence, 0 to 100 scale, 0 no effect, 100 complete control; for Pigweed plant response rating (0 to 100 scale): approx. 10 days
How it was run: as §1

[3] = test system: barnyardgrass (Echinochloa crus-galli); experiment: Test A preemergence, visual plant response rating; settings: for Barnyardgrass plant response rating: preemergence, 0 to 100 scale, 0 no effect, 100 complete control; for Barnyardgrass plant response rating (0 to 100 scale): approx. 10 days
How it was run: as §1

[4] = test system: foxtail, giant (giant foxtail, Setaria faberii); experiment: Test A preemergence, visual plant response rating; settings: for Foxtail, Giant plant response rating: preemergence, 0 to 100 scale, 0 no effect, 100 complete control; for Foxtail, Giant plant response rating (0 to 100 scale): approx. 10 days
How it was run: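 Preemergence: seeds in loam/sand blend given directed soil spray of compound in non-phytotoxic solvent with surfactant. Postemergence: plants 2–10 cm, one- to two-leaf stage, sprayed with same formulation. Visual injury rated vs untreated controls after ~10 days in greenhouse, 0 (no effect) to 100 (complete control).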

[5] = test system: Italian ryegrass (Lolium multiflorum); experiment: Test A preemergence, visual plant response rating; settings: for Ryegrass, Italian plant response rating: preemergence, 0 to 100 scale, 0 no effect, 100 complete control; for Ryegrass, Italian plant response rating (0 to 100 scale): approx. 10 days
How it was run: as §1

kochia (Kochia scoparia) [6] = experiment: Test A preemergence, visual plant response rating; settings: for Kochia plant response rating: preemergence, 0 to 100 scale, 0 no effect, 100 complete control; for Kochia plant response rating (0 to 100 scale): approx. 10 days
How it was run: as §1

[7] = test system: wheat (Triticum aestivum); experiment: Test A postemergence, visual plant response rating; settings: for Wheat plant response rating: Postemergence, 125 g ai/ha, 0 to 100 scale (0 no effect, 100 complete control)
Excerpt: (§2) Seeds of plant species selected from barnyardgrass (Echinochloa crus-galli), kochia (Kochia scoparia), ragweed (common ragweed, Ambrosia elatior), Italian ryegrass (Lolium multiflorum), foxtail, giant (giant foxtail, Setaria faberii), foxtail, green (green foxtail, Setaria viridis), and pigweed (Amaranthus retroflexus) were planted into a blend of loam soil and sand and treated preemergence with a directed soil spray using test chemicals formulated in a non-phytotoxic solvent mixture which included a surfactant.
(§3) At the same time, plants selected from these weed species and also wheat (Triticum aestivum), corn (Zea mays), blackgrass (Alopecurus myosuroides), and galium (catchweed bedstraw, Galium aparine) were planted in pots containing the same blend of loam soil and sand and treated with postemergence applications of test chemicals formulated in the same manner. Plants ranged in height from 2 to 10 cm and were in the one- to two-leaf stage for the postemergence treatment. Treated plants and untreated controls were maintained in a greenhouse for approximately 10 days, after which time all treated plants were compared to untreated controls and visually evaluated for injury. Plant response ratings, summarized in Table A, are based on a 0 to 100 scale where 0 is no effect and 100 is complete control. A dash (-) response means no test result.

corn (Zea mays) = experiment: Test A postemergence, visual plant response rating; settings: for Corn plant response rating: Postemergence, 125 g ai/ha, 0 to 100 scale (0 no effect, 100 complete control)
Excerpt: as §2, §3

[8] = test system: ragweed (common ragweed, Ambrosia elatior); experiment: Test A postemergence, visual plant response rating; settings: for Ragweed plant response rating: Postemergence, 125 g ai/ha, 0 to 100 scale (0 no effect, 100 complete control)
Excerpt: as §2, §3

[9] = test system: pigweed (Amaranthus retroflexus); experiment: Test A postemergence, visual plant response rating; settings: for Pigweed plant response rating: Postemergence, 125 g ai/ha, 0 to 100 scale (0 no effect, 100 complete control)
Excerpt: as §2, §3

[10] = test system: barnyardgrass (Echinochloa crus-galli); experiment: Test A postemergence, visual plant response rating; settings: for Barnyardgrass plant response rating: Postemergence, 125 g ai/ha, 0 to 100 scale (0 no effect, 100 complete control)
Excerpt: as §2, §3

[11] = test system: blackgrass (Alopecurus myosuroides); experiment: Test A postemergence, visual plant response rating; settings: for Blackgrass plant response rating: Postemergence, 125 g ai/ha, 0 to 100 scale (0 no effect, 100 complete control)
Excerpt: as §2, §3

[12] = test system: foxtail, giant (giant foxtail, Setaria faberii); experiment: Test A postemergence, visual plant response rating; settings: for Foxtail, Giant plant response rating: Postemergence, 125 g ai/ha, 0 to 100 scale (0 no effect, 100 complete control)
Excerpt: as §2, §3

[13] = test system: Italian ryegrass (Lolium multiflorum); experiment: Test A postemergence, visual plant response rating; settings: for Ryegrass, Italian plant response rating: Postemergence, 125 g ai/ha, 0 to 100 scale (0 no effect, 100 complete control)
Excerpt: as §2, §3

kochia (Kochia scoparia) [14] = experiment: Test A postemergence, visual plant response rating; settings: for Kochia plant response rating: Postemergence, 125 g ai/ha, 0 to 100 scale (0 no effect, 100 complete control)
Excerpt: as §2, §3

[15] = test system: galium (catchweed bedstraw, Galium aparine); experiment: Test A postemergence, visual plant response rating; settings: for Galium plant response rating: Postemergence, 125 g ai/ha, 0 to 100 scale (0 no effect, 100 complete control)
Excerpt: as §2, §3

[16] = test system: ducksalad (Heteranhera limosa); experiment: Test B flooded paddy test, visual plant response rating; settings: 250 g ai/ha, Flood, applied to paddy water, 2-leaf stage, evaluated after 13 to 15 days
How it was run: (§4)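 Rice, umbrella sedge, ducksalad and barnyardgrass grown to 2-leaf stage; pots flooded 3 cm above soil and compound applied directly to paddy water, depth maintained.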

[17] = test system: sedge, umbrella (small-flower umbrella sedge, Cyperus difformis); experiment: as above; settings: 250 g ai/ha, Flood, applied to paddy water, 2-leaf stage, evaluated after 13 to 15 days
How it was run: as §4

[18] = test system: barnyardgrass (Echinochloa crus-galli); experiment: as above; settings: 250 g ai/ha, Flood, applied to paddy water, 2-leaf stage, evaluated after 13 to 15 days
How it was run: as §4

rice (Oryza sativa) = experiment: as above; settings: 250 g ai/ha, Flood, applied to paddy water, 2-leaf stage, evaluated after 13 to 15 days
How it was run: as §4

[19] = 1000 g ai/ha Postemergence, approx. 10 days
[20] = 500 g ai/ha, postemergence, 0 is no effect, 100 is complete control

Compound | Plant response rating, Ducksalad (0 to 100 scale, 0 is no effect, 100 is complete control) [16] | Plant response rating, Sedge, Umbrella (0 to 100 scale, 0 is no effect, 100 is complete control) [17] | Plant response rating, Barnyardgrass (0 to 100 scale, 0 is no effect, 100 is complete control) [18] | Plant response rating, Rice (0 to 100 scale, 0 is no effect, 100 is complete control) (rice (Oryza sativa)) | Ragweed plant response rating (0 to 100 scale) ([1]; 500 g ai/ha Preemergence) | Pigweed plant response rating (0 to 100 scale) ([2]; 500 g ai/ha Preemergence) | Barnyardgrass plant response rating (0 to 100 scale) ([3]; 500 g ai/ha Preemergence) | Foxtail, Giant plant response rating (0 to 100 scale) ([4]; 500 g ai/ha Preemergence) | Ryegrass, Italian plant response rating (0 to 100 scale) ([5]; 500 g ai/ha Preemergence) | Kochia plant response rating (0 to 100 scale) (kochia (Kochia scoparia) [6]; 500 g ai/ha Preemergence) | Wheat plant response rating (0 to 100 scale) [7, 20] | Wheat plant response rating [7] | Corn plant response rating (0 to 100 scale) (corn (Zea mays); [20]) | Corn plant response rating (corn (Zea mays)) | Ragweed plant response rating (0 to 100 scale) [8, 20] | Ragweed plant response rating [8] | Pigweed plant response rating (0 to 100 scale) [9, 20] | Pigweed plant response rating [9] | Barnyardgrass plant response rating (0 to 100 scale) [10, 20] | Barnyardgrass plant response rating [10] | other results
Cc1cccc(/C(=N/OC(C)C)c2c(O)c(C)nn(C)c2=O)c1 [Compound 18] | 0 | 0 | 0 | 0 | – | – | – | – | – | – | – | – | – | – | – | – | – | – | – | – | Ragweed plant response rating ([1]; 1000 g ai/ha): 80; Pigweed plant response rating ([2]; 1000 g ai/ha): 100; Barnyardgrass plant response rating ([3]; 1000 g ai/ha): 30; Foxtail, Giant plant response rating ([4]; 1000 g ai/ha): 20; Ryegrass, Italian plant response rating ([5]; 1000 g ai/ha): 60; Kochia plant response rating (kochia (Kochia scoparia) [6]; 1000 g ai/ha): 50; Wheat plant response rating (0 to 100 scale) [7, 19]: 20; Corn plant response rating (0 to 100 scale) (corn (Zea mays); [19]): 0; Ragweed plant response rating (0 to 100 scale) [8, 19]: 100; Pigweed plant response rating (0 to 100 scale) [9, 19]: 90; Barnyardgrass plant response rating (0 to 100 scale) [10, 19]: 10; Blackgrass plant response rating (0 to 100 scale) [11, 19]: 10; Foxtail, Giant plant response rating (0 to 100 scale) [12, 19]: 40; Ryegrass, Italian plant response rating (0 to 100 scale) [13, 19]: 60; Kochia plant response rating (0 to 100 scale) (kochia (Kochia scoparia) [14]; [19]): 30; Galium plant response rating (0 to 100 scale) [15, 19]: 90
CO/N=C(/c1cccc(F)c1)c1c(O)c(C)nn(C)c1=O [Compound 32] | 0 | 0 | 0 | 0 | 40 | 50 | 0 | 0 | 50 | 10 | 10 | 0 | 0 | 0 | 80 | 50 | 40 | 40 | 20 | 10 | Ragweed plant response rating (0 to 100 scale) ([1]; 125 g ai/ha Preemergence): 20; Pigweed plant response rating (0 to 100 scale) ([2]; 125 g ai/ha Preemergence): 0; Barnyardgrass plant response rating (0 to 100 scale) ([3]; 125 g ai/ha Preemergence): 0; Foxtail, Giant plant response rating (0 to 100 scale) ([4]; 125 g ai/ha Preemergence): 0; Ryegrass, Italian plant response rating (0 to 100 scale) ([5]; 125 g ai/ha Preemergence): 20; Kochia plant response rating (0 to 100 scale) (kochia (Kochia scoparia) [6]; 125 g ai/ha Preemergence): 0; Blackgrass plant response rating (0 to 100 scale) [11, 20]: 20; Blackgrass plant response rating [11]: 0; Foxtail, Giant plant response rating (0 to 100 scale) [12, 20]: 20; Foxtail, Giant plant response rating [12]: 10; Ryegrass, Italian plant response rating (0 to 100 scale) [13, 20]: 60; Ryegrass, Italian plant response rating [13]: 40; Kochia plant response rating (0 to 100 scale) (kochia (Kochia scoparia) [14]; [20]): 70; Kochia plant response rating (kochia (Kochia scoparia) [14]): 20; Galium plant response rating (0 to 100 scale) [15, 20]: 80; Galium plant response rating [15]: 70
CO/N=C(/c1ccccc1F)c1c(O)c(C)nn(C)c1=O [Compound 34] | 0 | 0 | 0 | 0 | 50 | 10 | 0 | 40 | 60 | 0 | 20 | 20 | 0 | 0 | 50 | 40 | 20 | 20 | 20 | 0 | Ragweed plant response rating ([1]; 125 g ai/ha): 20; Pigweed plant response rating ([2]; 125 g ai/ha): 0; Barnyardgrass plant response rating ([3]; 125 g ai/ha): 0; Foxtail, Giant plant response rating ([4]; 125 g ai/ha): 0; Ryegrass, Italian plant response rating ([5]; 125 g ai/ha): 10; Kochia plant response rating (kochia (Kochia scoparia) [6]; 125 g ai/ha): 0; Blackgrass plant response rating (0 to 100 scale) [11, 20]: 10; Blackgrass plant response rating [11]: 0; Foxtail, Giant plant response rating (0 to 100 scale) [12, 20]: 10; Foxtail, Giant plant response rating [12]: 0; Ryegrass, Italian plant response rating (0 to 100 scale) [13, 20]: 60; Ryegrass, Italian plant response rating [13]: 20; Kochia plant response rating (0 to 100 scale) (kochia (Kochia scoparia) [14]; [20]): 20; Kochia plant response rating (kochia (Kochia scoparia) [14]): 10; Galium plant response rating (0 to 100 scale) [15, 20]: 70; Galium plant response rating [15]: 40
Cc1ccc(Cl)cc1/C(=N\O)c1c(O)c(C)nn(C)c1=O [Compound 35] | 0 | 0 | 0 | 0 | 10 | 0 | 0 | 0 | 10 | 0 | 0 | 0 | 0 | 0 | 20 | 10 | 20 | 10 | 0 | 0 | Ragweed plant response rating ([1]; 125 g ai/ha): 0; Pigweed plant response rating ([2]; 125 g ai/ha): 0; Barnyardgrass plant response rating ([3]; 125 g ai/ha): 0; Foxtail, Giant plant response rating ([4]; 125 g ai/ha): 0; Ryegrass, Italian plant response rating ([5]; 125 g ai/ha): 0; Kochia plant response rating (kochia (Kochia scoparia) [6]; 125 g ai/ha): 0; Blackgrass plant response rating (0 to 100 scale) [11, 20]: 20; Blackgrass plant response rating [11]: 0; Foxtail, Giant plant response rating (0 to 100 scale) [12, 20]: 0; Foxtail, Giant plant response rating [12]: 0; Ryegrass, Italian plant response rating (0 to 100 scale) [13, 20]: 20; Ryegrass, Italian plant response rating [13]: 0; Kochia plant response rating (0 to 100 scale) (kochia (Kochia scoparia) [14]; [20]): 10; Kochia plant response rating (kochia (Kochia scoparia) [14]): 0; Galium plant response rating (0 to 100 scale) [15, 20]: 70; Galium plant response rating [15]: 20

Reference: patent US20210045385A1, “PYRIDAZINONE-SUBSTITUTED KETOXIMES AS HERBICIDES” (FMC Corporation, priority 2018, published 2021)
